What was measured:
Type in all cases: cell-based, human
[1] = tested on: LAMA 84 cells; assay: Apoptosis by cytospin slides
Experimental: Experimental Format: Logarithmically growing cells are placed in sterile plastic T-flasks (Corning, Corning, N.Y.) to which are added the designated drugs and the flasks replaced in the incubator for intervals. At the end of the incubation period, cells are transferred to sterile centrifuge tubes, pelleted by centrifugation at 400×g for 10 min at room temperature, and prepared for analysis as described below.
(§1) Assessment of Apoptosis: After drug exposures, cytocentrifuge preparations are stained with Wright-Giemsa and viewed by light microscopy to evaluate the extent of apoptosis (i.e., cell shrinkage, nuclear condensation, formation of apoptotic bodies, etc.) as described previously (Yu et al., Nat. Rev. Cancer 1:294-202). For these studies, the percentage of apoptotic cells is determined by evaluating ≧500 cells/condition in triplicate. To confirm the results of morphological analysis, Annexin V/PI staining is used. Annexin V/PI (BD PharMingen, San Diego, Calif.) analysis of cell death is carried out as per the manufacturer's instructions. In studies involving TNF and TNF soluble receptor, both compound are combined and maintained at room temperature 20 min prior to use. For these experiments 1-2×10^5 cells per condition are harvested. Analysis is carried out using a Becton-Dickinson FACScan cytofluorometer (Mansfield, Mass.). To further confirm the morphology results, TUNEL staining is used. For TUNEL staining, cytocentrifuge preparations are obtained and fixed with 4% formaldehyde. The slides are treated with acetic acid/ethanol (1:2), stained with terminal transferase reaction mixture containing 1× terminal transferase reaction buffer (0.25 units/μl terminal transferase, 2.5 mM CoCl2, and 2 pmol fluorescein-12-dUTM; Boehringer Mannheim, Indianapolis, Ind.), and visualized using fluorescence microscopy.

[2] = tested on: K562 cells; assay: Erythroid differentiation by hemoglobin (Hgb) production; settings: 2.0 μM SAHA ± 250 nM Compound I
Source text: In each case, values represent the means±S.D. for three separate experiments.

[3] = tested on: p21^CIP1; assay: Western analysis of p21CIP1 in K562 cells; settings: 2.0 μM SAHA ± 250 nM Compound I
Experimental: Immunoblot Analysis: Immunoblotting is performed as described previously (Yu et al., Nat. Rev. Cancer 1:294-202). In brief, after drug treatment cells are pelleted by centrifugation, and lysed immediately in Laemmli buffer [1×=30 mM Tris-base (pH 6.8), 2% SDS, […] β-mercaptoethanol, and 10% glycerol], and briefly sonicated. Homogenates are quantified using Coomassie protein assay reagent (Pierce, Rockford, Ill.). Equal amounts of protein (20 μg) are boiled for 10 min, separated by SDS-PAGE (5% stacker and 10% resolving), and electroblotted to nitrocellulose membrane. After blocking in TBS-T (0.05%) and 5% milk for 1 h at 22° C., the blots are incubated in fresh blocking solution with an appropriate dilution of primary antibody for 4 h at 22° C. […]
K562 cells are treated as above, and monitored for expression of Bcl-xL, Mcl-1, and XIAP. […]

[4] = tested on: Compound I-resistant K562 cells (K562R); assay: Apoptosis by Wright Giemsa-stained cytospin slides in resistant cells; settings: Table 7, 24 hr, Compound I (1.0 or 1.25 μM), SAHA (1.0 or 2.0)
Experimental: as §1, with “For TUNEL staining, cytocentrifuge preparations are obtained and fixed with 4% formaldehyde.” left out

SMILES	Compound I + SB % of apoptotic cells ([1]; Table 6, LAMA 84, 24 hr, sodium butyrate (SB; 1 or 2 mM), Compound I concentration not given) [%]	cell death ([1]; sensitive LAMA 84, Compound I (1.0 or 1.25 μM) for 48 hr, data not shown) [%]	increase in Hgb production ([2]; 24-hr exposure) [%]	Hgb production ([2]; 48 hr, data not shown)	induction of p21^CIP1 [3]	Compound I + SAHA % of apoptotic cells [4] [%]
Cc1ccc(NC(=O)c2ccc(CN3CCN(C)CC3)cc2)cc1Nc1nccc(-c2cccnc2)n1 [Compound I, N-{5-[4-(4-methyl-piperazino-methyl)-benzoylamido]-2-methylphenyl}-4-(3-pyridyl)-2-pyrimidine-amine]	9.3 ± 3.8	~100	–	–	–	–
O=C(CCCCCCC(=O)Nc1ccccc1)NO [SAHA, suberoylanilide hydroxamic acid]	–	–	~50	substantial increases	robust induction	6.8 ± 3.5

Source: patent US20060100140A1, “Combination of a) n-{5-[4-(4-methyl-piperazino-methyl)-benzoylamido]2-methylphenyl}-4- (3-pyridyl)-2-pyrimidine-amine and b) a histone deacetylase inhibitor for the treatment of leukemia” (priority 2002, published 2006)
